Measured values reported in US9861625B2, “Methods and compositions for treating cancer through inhibition of PI3K” (Duke University, priority 2014, dated 2018).

Assays:
Type in all cases: cell-based
[1] = system: Ly8 cell lines with stable knockdown of PAK1 expression; assay: MTT assay in Ly8 cells with shRNA knockdown of PAK1; details: on average, P<0.01
Description: The 3-(4,5-dimethylthiazol-2-yl)-2,5-diphenyltetrazolium bromide (MTT) cell viability assay was used to determine cell viability in response to drug treatment. Five replicates per concentration tested were carried out in serial dilutions with a total of ten concentrations with a 50% reduction in drug concentration per dilution for each plate. A total of 15 μl of MTT reagent was added to each drug-treated well and incubated for three hours in 37° C. Detergent was added to each drug-treated well and incubated overnight at room temperature without exposure to light. Absorbance was measured at 570 nm using a plate reader from Tecan Group.
Lentiviral pGIPZ constructs containing either a scrambled sequence (non-silencing; cat. no. RHS4346; Open Biosystems) as control, or a hairpin sequence targeting the PAK1 gene (cat. no. RHS4430; Open Biosystems) were mixed with Lentiviral packaging mix (cat. no. TLP4691; Open Biosystems) and transfected into TLA-HEK-293T cells using Arrest-in as a transfection reagent. Virus was harvested 72 hours post-transfection and frozen at −80° C. until use. DLBCL cell lines were infected with virus in the presence of 8 μg/μl of polybrene, using 1×10^5 cells per well in a 6-well plate. The plates containing cells and virus were spun at 700 g for 90 minutes at room temperature. […] Successful knockdown of PAK1 was confirmed by Western blot and quantitative PCR. […]

[2] = system: Ly8 cells and normal human B cells (tonsil lymphocytes); assay: Toxicity in Ly8 cells compared to normal B cells (alamar blue); details: alone and in combination; 36 hours
Description: BEZ235 was tested in combination with the PAK1 inhibitor IPA-3 using Calcusyn software by applying the Chou-Talalay method. BJAB, HBL1, HBL2, HT, Ly8, and Riva cells were tested, as were normal tonsil lymphocytes. Ly8 and tonsillar lymphocytes were cultured in 96-well plates (approximately 500,000 cells/ml) for 36 hours in Iscove's modified Dulbecco's medium (IMDM) with 20% human AB serum. Viability was assessed with alamar blue dye and normalized to the lowest concentration of BEZ235 in each group.
Finally, BEZ235 and IPA-3 were administered separately and concurrently to normal human B cells to ascertain a therapeutic window between normal and malignant cells.

[3] = system: 21 established DLBCL cell lines; assay: MTT viability assay of DLBCL cell lines with and without MTOR mutations; details: on average; FIG. 1G
Description: Lymphoma cell lines were cultured with RPMI1640 media supplemented with 10% v/v Fetal Bovine Serum (FBS) and 1% v/v Penicillin/Streptomycin supplied at 10,000 U penicillin and 10 mg streptomycin/ml (BJAB, Farage, Karpas422, Pfieffer, RL, SCI 1, SKI, Toledo, U2932, WSU_NHL, HT), or RPMI1640 supplemented with 15% v/v FBS and 1% v/v P/S (RCK8, SUDH4, SUDHL7), Iscove's modified Dulbecco's medium (IMDM) supplemented with 20% v/v human plasma and 1% P/S ([…]), or alpha-MEM media supplemented with 10% FBS and 1% P/S (TMD8). Cells were grown in a 5% CO2 environment at 37° C.
The effect the PI3K inhibitor drug BKM120 (Novartis) on lymphoma cell lines was assayed on 96-well format using MTT viability assays. 40,000 cells were grown in drug at 10 concentrations: 25 μM, and nine serial 1:2 dilutions down to 0.05 μM. For each condition tested, there were five technical replicates. Two controls were included: media only and drug-free cells. If the IC50 was not reached within this drug concentration range, the experiment was repeated with an additional drug concentration of […]. […] 100 μl of MTT detergent solution was added, and color was developed in the dark at room temperature overnight, after which 570 nm absorbance was measured. After normalization to control wells, the IC50 values were calculated. […]

| SMILES | sensitivity of the three shRNA-modified cell lines versus unmodified Ly8 cells [1] [fold] | toxicity in Ly8 cells as compared to normal B cells [2] | sensitivity of cell lines with MTOR mutations (HT, Ly1, SUDHL7) versus the other 18 cell lines [3] |
| --- | --- | --- | --- |
| Cn1c(=O)n(-c2ccc(C(C)(C)C#N)cc2)c2c3cc(-c4cnc5ccccc5c4)ccc3ncc21 [BEZ235] | 3.5 | selective toxicity |  |
| Nc1cc(C(F)(F)F)c(-c2cc(N3CCOCC3)nc(N3CCOCC3)n2)cn1 [BKM120] |  |  | fivefold higher sensitivity |
